Results on four compounds are retold here after patent US12527796B2, “[6R]-MTHF—an efficient folate alternative in 5-fluorouracil based chemotherapy” (Isofol Medical AB, priority 2017, dated 2026).

One data set has as its system colorectal cancer. Particulars: Phase IIb; cited from earlier work.
The subject of the next data set is pancreas cancer. To be noted: combined with 5-FU; cited from earlier work.
In data set [1] the test system is stage IV colorectal cancer. The experiment in a line: ISO-CC-005 open-label Phase I/II dose cohort trial of [6R]-MTHF with 5-FU (response per RECIST 1.1, adverse events). Type of data set: in vivo, human. From the text:
As used herein, the term ORR shall refer to the Objective Response Rate, ie. the proportion of patients with reduction in tumor burden of a predefined amount. […] (Note: the appearance of one or more new lesions is also considered progression). Stable Disease (SD): • Neither sufficient shrinkage to qualify for PR nor sufficient increase to qualify for PD, taking as reference the smallest sum diameters while on study. ([…], Schwartz […], Ford R, et al. New response evaluation criteria in solid tumours: revised RECIST guideline (version 1.1). Eur J Cancer. 2009 January; 45(2):228-47) […] A maximum of 63 Stage IV CRC patients eligible for 1st, 2nd or 3rd line treatment are planned to be enrolled in this study disposed as follows: three to six patients in each dose cohort, and three additional patients in one dose cohort in each treatment arm according to the following study design (Table 1). [table] […] Dosing: Rapid i.v. bolus injections at a fixed dose of 30, 60, 120 or 240 mg/m^2, will be administered approximately 30 minutes after administration of 5-FU on Day 1 and Day 2 in each treatment cycle in all ^dose cohorts of the study (i.e. regardless of treatment arm). The regimen will be repeated every second week for up to eight (8) cycles, i.e. up to sixteen (16) weeks. 5-FU (5-fluorouracil) is formulated as injection solution. Dosing: 5-FU will be administered as i.v. bolus injections on Day 1 and Day 2 in each treatment cycle. In Arm #2 and Arm #3 of the study, 5-FU will be administered approximately 60 minutes after start of Oxaliplatin or Irinotecan administration, respectively (see description below). The regimen will be repeated every second week for up to eight (8) cycles, i.e. up to sixteen (16) weeks. ISO-CC-005 is an open clinical phase I/II tolerability and dose definition study designed to evaluate safety and define the [6R]-MTHF dose for continued development. It evaluates four doses of [6R]-MTHF in combination with 5-FU with or without the different combinations of irinotecan or oxaliplatin and bevacizumab in patients with metastatic Colorectal Cancer using 4 different protocols: • MOD+5-FU: [6R]-MTHF in combination with 5-FU only, similar to Nordic FLV protocol • MOD+[…] in combination with 5-FU and Irinotecan, similar to Nordic FLIRI protocol • MOD+FLOX: [6R]-MTHF in combination with 5-FU and Oxaliplatin, similar to Nordic FLOX protocol • MOFOX: [6R]-MTHF in combination with 5-FU and Oxaliplatin, similar to FOLFOX-6 protocol The patients belong to several treatment lines ranging from first to third and even fifth lines. The results of the study are regularly assessed, and the results from the group of patients undergoing 1st line treatment and partially the group of patients undergoing 2nd, 3rd and 5th line treatment have previously (in August 2017) and again (December 2017) been analyzed. The clinical study is still ongoing. […] (see FIG. 2). Four (4) 1st line patients could not be followed for the additional 8 weeks' treatment due to study protocol formalities. No further 1st line patients had been analysed at this point.

A further data set concerns the target Thymidylate Synthase (Lacticaseibacillus casei, UniProt P00469). Particulars: cited from earlier work.
The test system of data set [2] is metastatic colorectal carcinoma. To be noted: modulation of 5-FU with LV; cited from earlier work.
The mark [3] stands for this setting: 1st line patients, 8 weeks' treatment.
Setting [4] is: 30 patients, 1st, 2nd, 3rd and 5th line, after 8 weeks' treatment.

Thymidylate Synthase, sequence (P00469 whole entry): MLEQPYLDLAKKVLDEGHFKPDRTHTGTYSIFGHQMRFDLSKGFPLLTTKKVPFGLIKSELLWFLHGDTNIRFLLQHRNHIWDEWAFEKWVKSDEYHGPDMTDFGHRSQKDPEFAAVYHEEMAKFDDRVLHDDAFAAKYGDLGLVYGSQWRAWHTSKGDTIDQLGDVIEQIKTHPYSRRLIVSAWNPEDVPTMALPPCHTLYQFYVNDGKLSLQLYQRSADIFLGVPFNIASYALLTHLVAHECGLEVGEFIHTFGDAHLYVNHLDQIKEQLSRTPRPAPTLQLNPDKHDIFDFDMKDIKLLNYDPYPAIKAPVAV

For `Nc1nc2c(c(=O)[nH]1)N1CN(c3ccc(C(=O)N[C@@H](CCC(=O)[O-])C(=O)[O-])cc3)CC1CN2.[Ca+2]` (stereo partly drawn) [CoFactor, [6R,S]-5,10-methylene-THF Ca salt], the “differences between the study arms (CoFactor vs leucovorin) with regard to efficacy or safety” value in the data set on colorectal cancer is reported as “no significant differences”. Moreover, the “patients with clinical benefit, defined as stable disease or tumor response” value with pancreas cancer is 40%.
Consider `Nc1nc2c(c(=O)[nH]1)N1CN(c3ccc(C(=O)N[C@@H](CCC(=O)O)C(=O)O)cc3)C[C@H]1CN2` [[6R]-MTHF, [6R]-5,10-methylenetetrahydrofolate], for which, in data set [1] (setting [3]), the ORR is listed as 50% and the “patients with clinical benefit, defined as stable disease or partial response” value turned out to be 100%. Moreover, the “patients showing clinical benefit” value in data set [1] (1st line patients, 16 weeks of treatment) is reported as 100%. The “patients with clinical benefit, defined as stable disease or partial response” value in data set [1] (2nd, 3rd or 5th line patients (25), after 8 weeks' treatment) came to 64%. In data set [1] (setting [4]), the “patients with partial response” value worked out at 27%, the “patients with progressive disease” value turned out to be 13% and the “patients with stable disease” value was found to be 60%. Besides, in data set [1] ([6R]-MTHF combined with 5-FU), the “clinical benefit, defined as stable disease or tumor response, treated patients” value was over 90%. The “ORRs (objective response rates)” value in data set [1] (colorectal cancer patients, initial 5-FU followed by [6R]-MTHF) is 50-60%. Moreover, in data set [1] (eight 1st line patients, 16 weeks of treatment), the “progression in the cancer after the initial 8 weeks' treatment” value is given as “no progression”. In data set [1] (in vivo), the “toxicity of 5-FU when combined with [6R]-MTHF, compared to 5-FU with other folate adjuvants” value is listed as “reduced”. Moreover, in data set [1] (of eight 1st line patients), the “patients showing Partial Response at 16 weeks” value was determined as 5 patients and the “patients showing Stable Disease at 16 weeks” value was 3 patients. For the same compound, the “treated patients with at least a 25% decrease in the sum of the diameters of target lesions” value in data set [1] (reference baseline sum diameters, with 5-FU) is about 65%.
For the compound `Nc1nc2c(c(=O)[nH]1)N1CN(c3ccc(C(=O)N[C@@H](CCC(=O)O)C(=O)O)cc3)C[C@@H]1CN2` (single isomer, unassigned) [[6S]-isomer], the “effect on the natural [6R]-isomer as co-substrate for TS” value at Thymidylate Synthase is reported as “partial competitive inhibitor”.
On to `Nc1nc2c(c(=O)[nH]1)N(C=O)C(CNc1ccc(C(=O)N[C@@H](CCC(=O)O)C(=O)O)cc1)CN2` (stereo partly drawn) [Leucovorin], for which, in data set [2], the “time-to-progression (TTP) of disease” value is “prolongation of the time-to-progression (TTP)”.
